“Also recorded” adds a separate entry of the source.
What was measured:
herpes- and poxviruses = test: organism not typed; assay type: cell-based; settings: for Selectivity index (ratio CC50:EC50), HCMV / Selectivity index (ratio CC50:EC50), HSV / Selectivity index (ratio CC50:EC50), VZV: CC50 in HEL; for Selectivity index (ratio CC50:EC50), VZV: different VZV strains; for Activity against herpes- and poxviruses (in words): DNA viruses: VACV, HSV-1, HSV-2, TK- HSV-1, VZV; for Selectivity index (ratio CC50:EC50), HCMV / Activity against herpes- and poxviruses (in words): HCMV
[1] = system: Vaccinia virus Lederle strain; assay type: cell-based
[2] = molecular target: hypoxanthine-guanine-xanthine phosphoribosyltransferase (HGXPRT); settings: read-out: Ki, HGXPRT; Plasmodium falciparum enzyme; cited from earlier work

## Nc1ccn(C[C@@H](CO)OCP(=O)(O)O)c(=O)n1.O.O [Cidofovir, reference compound]
herpes- and poxviruses
  Selectivity index (ratio CC50:EC50), HCMV: 195–282
  Selectivity index (ratio CC50:EC50), HSV: 322–363
  Selectivity index (ratio CC50:EC50), VZV: 880–2540

## CC(CP(=O)(O)O)OCCn1cnc2c(N)ncnc21 (centres unmarked) [Compound 9a, 9-[2-(1-Phosphonopropan-2-yloxy)ethyl]adenine]
[1]
  Selectivity index (ratio CC50:EC50), vaccinia virus: < 1
herpes- and poxviruses
  Selectivity index (ratio CC50:EC50), HCMV: 14–15
  Selectivity index (ratio CC50:EC50), HSV: 6–10
  Selectivity index (ratio CC50:EC50), VZV: 120–190
herpes- and poxviruses; read-out: EC50 values against different human herpesviruses (range)
  EC50: 0.07 to 2.3 µM

## Nc1ncnc2c1ncn2CCOC(COCc1ccccc1)CP(=O)(O)O (centres unmarked) [Compound 9d, 9-[2-(3-Benzyloxy-1-phosphonopropan-2-yloxy)ethyl]adenine]
herpes- and poxviruses
  Activity against herpes- and poxviruses (in words): inactive

## Nc1ncnc2c1ncn2CCOC(CO)CP(=O)(O)O (centres unmarked) [Compound 9e, 9-[2-(3-Hydroxy-1-phosphonopropan-2-yloxy)ethyl]adenine]
herpes- and poxviruses
  Activity against herpes- and poxviruses (in words): inactive; also recorded: annihilated the anti-DNA virus activity

## CC(CP(=O)(O)O)OCCn1cnc2c(N)nc(N)nc21 (centres unmarked) [Compound 14, 9-[2-(1-Phosphonopropan-2-yloxy)ethyl]diaminopurine]
herpes- and poxviruses
  Activity against herpes- and poxviruses (in words): inactive

## Cc1cn(CCOC(CO)CP(=O)(O)O)c(=O)[nH]c1=O (centres unmarked) [Compound 15e, 9-[2-(3-Hydroxy-1-phosphonopropan-2-yloxy)ethyl]thymine]
herpes- and poxviruses
  Activity against herpes- and poxviruses (in words): inactive

## Nc1nc2c(ncn2CCOCCP(=O)(O)O)c(=O)[nH]1 [PEEG]
[2]
  Ki: 0.1 µM

## O=c1[nH]cnc2c1ncn2CCOCCP(=O)(O)O [PEEHx]
[2]
  Ki: 0.3 µM

From PMC7125515 (Bioorganic & Medicinal Chemistry, 2011)
